This note sets out measurements from patent US20180273531A1, “PYRIMIDINE COMPOUND AND MEDICAL USE THEREOF” (Japan Tobacco Inc., priority 2004, published 2018).

Test [1] relates to p15 protein. Nature of the test: Evaluation of p15 induction activity (Western blotting). It counts as cell-based. The following applies: test substance 0.1 μM, 24 hrs, ACHN cells or HT-29 cells, compared to DMSO, n=2. The gist of the method: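 p15 protein quantified by densitometry of anti-p15 Western blots (10 μg protein per lane, mean of n=2). Samples came from HT-29 or ACHN cells given 0.1 μM compound for 24 h after 24 h plating, with DMSO as control.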

In test [2] the test system is ACHN cells or HT-29 cells. Nature of the test: Cell cycle analysis (flow cytometry, CycleTEST PLUS). It counts as cell-based. To be noted: test substance less than 10 μM, 24 hrs, compared to DMSO, n=2, read-out: CELL RATIO OF G0/G1 PHASE. The procedure:
ACHN cells or HT-29 cells were cultured in a 6 well plate at 2.5×10^5 cells/1.8 mL/well for 24 hrs, then a test substance (less than 10 μM) dissolved in DMSO was added. After 24 hrs, cells were detached using trypsin-EDTA and the DNA content of single cell was analyzed by flow cytometry method using a CycleTEST PLUS (BECKTON DICKINSON) kit, and the proportion of the cells in the G0/G1 phase·S phase·G2/M phase was calculated. As a control, DMSO was used and the test was performed with n=2.

The test system of test [3] is Renal cancer cell line ACHN cell. Nature of the test: Growth inhibitory effect against cancer cell lines (3H-thymidine uptake), ACHN. To be noted: Homo sapiens, ACHN. It counts as cell-based. In outline:
(§1)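 Cells seeded at 1.0×10^4/well, grown 24 hrs, then exposed to compound in DMSO for 18 hrs before 6 hrs pulse with ^3H-thymidine (0.25 μCi/well). Harvested cell-incorporated radioactivity counted; IC50 is the concentration halving uptake versus DMSO control, triplicate.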

In test [4] the test system is colorectal cancer cell line HT-29 cells. Nature of the test: Growth inhibitory effect against cancer cell lines (3H-thymidine uptake), HT-29. It counts as cell-based. The following applies: Homo sapiens, HT-29, inhibition of 3H-thymidine uptake; test substance 18 hrs, then 3H-thymidine 6 hrs; triplicate. The gist of the method: as §1
The test system of test [5] is p27 protein. In words: p27 protein induction test (Western blotting). It counts as cell-based. The following applies: test substance (0.1 1M), 24 hrs, ACHN cells or HT-29 cells, compared to DMSO, n=2. The gist of the method:
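ACHN or HT-29 cells grown 24 h, then treated with test substance at […] (DMSO) for 24 h. Lysates normalised by protein content and probed by Western blot with anti-p27 antibody. Band density quantified by densitometer against DMSO control, n=2 averaged.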

Test [6] deals with HT-29 cells. Nature of the test: Evaluation on the nude-mouse xenograft model. It counts as in vivo, mouse (Balb/c-nu/nu). The following applies: HT-29, po, 240 h, 30 mg/kg orally twice a day for 10 days, tumor volume, treated vs vehicle group, n=6-8, read-out: T/C(%). How it is done: HT-29 cells (5.0×10^6 cells/100 μL/head, suspended in HBSS (Hanks' solution)) in the logarithmic growth phase were implanted in a mouse (Balb/c-nu/nu) at the right lateral abdomen under ether anesthesia. After 5 days of implantation, the long diameter and short diameter of the tumor were measured, and the mice were divided into groups such that each group has an equivalent average tumor volume. For grouping, a grouping soft (general grouping system (Visions) was used. From the next day of the grouping, a test substance suspended in 0.5% MC (methyl cellulose) was repeatedly orally administered twice a day for 10 days (30 mg/kg). The tumor volume was measured twice a week and used as an index of antitumor activity. As a control, 0.5% MC was used and the test was performed with n=6-8.
The index (T/C (%)) of the antitumor activity was calculated according to the following formula.
T/C(%)=(The average tumor volume of the group treated with a test substance)/(The average tumor volume of the Vehicle group)×100
The tumor volume was calculated according to the following formula.
Tumor volume(mm^3)=L×W×W/2
(L: long diameter (mm) of tumor, W: short diameter (mm) of tumor)

In test [7] the test system is TNF-α or IL-6. In words: Evaluation on inflammatory cytokine production (LPS-stimulated PBMC). To be noted: human PBMC stimulated with LPS. It counts as cell-based.

Each structure is given as a SMILES string.

On to `Cn1c(=O)cc(Nc2ccc(Br)cc2)c2c(=O)n(C3CC3)c(=O)n(-c3ccccc3)c21` [Example 1-89], for which the fold induction at 0.1 µM in test [1] and in test [5] was no less than 1.5 throughout. Further, in test [2], the fold induction is no less than 1.2. The IC50 in test [3] was in the range of 0.1 to 1 µM; in test [4] it was 0.01 to 0.1 µM.
In the case of `C#Cc1ccc(Nc2c3c(=O)n(C)c(=O)n(-c4cccc(NS(C)(=O)=O)c4)c3c(C)c(=O)n2C)c(F)c1` [Example 4-49], the fold induction at 0.1 µM in test [1] and in test [5] was no less than 1.5 each time. Further, the response vs control in vivo at 30 mg/kg in test [6] turned out to be 35%. The IC50 is 0.01 to 0.1 µM in test [3] and less than 0.01 µM in test [4].
As for `C#Cc1ccc(Nc2c3c(=O)n(C4CC4)c(=O)n(-c4cccc(NC(C)=O)c4)c3c(C)c(=O)n2C)c(F)c1` [Example 4-3, N-{3-[3-cyclopropyl-5-(4-ethynyl-2-fluorophenylamino)-6,8-dimethyl-2,4,7-trioxo-3,4,6,7-tetrahydro-2H-pyrido[4,3-d]pyrimidin-1-yl]phenyl}acetamide], the fold induction at 0.1 µM in test [1] and in test [5] was no less than 1.5 throughout. For the same compound, the fold induction at up to 10 µM in test [2] was no less than 1.2. In addition, the IC50 in test [3] was 0.01 to 0.1 µM; in test [4], less than 0.01 µM.
Turning to `Cc1c(=O)n(C)c(Nc2ccc(I)cc2F)c2c(=O)n(C3CC3)c(=O)n(-c3ccc(NS(C)(=O)=O)cc3)c12` [Example 4-70], the fold induction at 0.1 µM in test [1] and in test [5] was no less than 1.5 throughout. Also, the response vs control in vivo at 30 mg/kg in test [6] was 31%. The fold induction at up to 10 µM in test [2] was no less than 1.2. Also, the IC50 in test [3] was 0.01 to 0.1 µM; in test [4], less than 0.01 µM.
Take `Cn1c(=O)cc(Nc2ccc(Cl)cc2)c2c(=O)n(C3CC3)c(=O)n(-c3ccccc3F)c21` [Example 1-100]: in test [1], the fold induction at 0.1 µM was no less than 1.5. For the same compound, in test [2], the fold induction was no less than 1.2. In test [4], this compound showed an IC50 of 0.1 to 1 µM.
`Cc1c(=O)n(C)c(Nc2ccc(I)cc2F)c2c(=O)n(C3CC3)c(=O)n(-c3cccc(NS(N)(=O)=O)c3)c12` [Example 4-54]: the fold induction at 0.1 µM in test [1] and in test [5] was no less than 1.5 each time. Also, in test [6], the response vs control in vivo at 30 mg/kg worked out at 11%. Further, the IC50 in test [3] and in test [4] was less than 0.01 µM in each case.
In the case of `CCn1c(=O)c2c(Nc3ccc(N(C)C)cc3)cc(=O)n(C)c2n(-c2ccccc2)c1=O` [Example 1-97], in test [1], the fold induction at 0.1 µM is no less than 1.5. Moreover, the fold induction in test [2] was no less than 1.2. Besides, in test [4], the IC50 is 0.1 to 1 µM.
On to `Cc1c(=O)n(C)c(Nc2ccc(I)cc2F)c2c(=O)n(C3CC3)c(=O)n(-c3ccc(S(N)(=O)=O)cc3)c12` [Example 4-104], for which the fold induction at 0.1 µM in test [1] and in test [5] was no less than 1.5 throughout. Besides, the fold induction at up to 10 µM in test [2] is no less than 1.2. For the same compound, the IC50 in test [3] and in test [4] was less than 0.01 µM throughout.
With `CC(=O)Nc1cccc(-n2c(=O)n(C)c(=O)c3c(Nc4ccc(I)cc4F)n(C)c(=O)c(C)c32)c1` [Example 4-15], the fold induction at 0.1 µM in test [1] and in test [5] was no less than 1.5 throughout. Besides, in test [6], the response vs control in vivo at 30 mg/kg was 31%. For the same compound, the IC50 was 0.01 to 0.1 µM in test [3] and less than 0.01 µM in test [4].
Turning to `Cc1c(=O)n(C)c(Nc2ccc(I)cc2F)c2c(=O)n(C3CC3)c(=O)n(-c3ccc4oc(=O)[nH]c4c3)c12` [Example 4-126], the fold induction at 0.1 µM in test [1] and in test [5] was no less than 1.5 throughout. Also, in test [2], the fold induction at up to 10 µM is no less than 1.2. Moreover, the IC50 in test [3] and in test [4] was less than 0.01 µM throughout.
The compound `Cc1ccccc1-n1c(=O)n(C)c(=O)c2c(Nc3ccc(Br)cc3)cc(=O)n(C)c21` [Example 1-95] had a fold induction at 0.1 µM in test [1] of no less than 1.5. Besides, in test [2], the fold induction was no less than 1.2. In addition, the IC50 in test [4] was in the range of 0.1 to 1 µM.
Turning to `Cc1c(=O)n(C)c(Nc2ccc(I)cc2F)c2c(=O)n(C)c(=O)n(-c3cccc(NS(C)(=O)=O)c3)c12` [Example 4-16, N-{3-[5-(2-fluoro-4-iodophenylamino)-3,6,8-trimethyl-2,4,7-trioxo-3,4,6,7-tetrahydro-2H-pyrido[4,3-d]pyrimidin-1-yl]phenyl}methanesulfonamide], the fold induction at 0.1 µM in test [1] and in test [5] was no less than 1.5 in each case. For the same compound, in test [7], the “production of TNF-α or IL-6” value is recorded as “suppressed”. Moreover, in test [6], the response vs control in vivo at 30 mg/kg was found to be 10%. Moreover, the fold induction at up to 10 µM in test [2] is no less than 1.2. Moreover, the IC50 in test [3] and in test [4] was less than 0.01 µM each time.
Compound `Cc1cccc(-n2c(=O)n(C)c(=O)c3c(Nc4ccc(Cl)cc4)cc(=O)n(C)c32)c1` [Example 1-86] came in with a fold induction at 0.1 µM in test [1] of no less than 1.5. Further, the fold induction in test [2] was no less than 1.2.
Compound `Cc1cc(N(C)C)ccc1Nc1cc(=O)n(C)c2c1c(=O)n(-c1ccccc1)c(=O)n2-c1ccccc1` [Example 1-55] yielded a fold induction at 0.1 µM in test [1] of no less than 1.5. Besides, the fold induction in test [2] was no less than 1.2. In addition, the IC50 in test [4] lay in the range of 0.1 to 1 µM.
Regarding `CCn1c(=O)c2c(Nc3ccc(Cl)cc3)cc(=O)n(C)c2n(-c2ccccc2)c1=O` [Example 1-78], the fold induction at 0.1 µM in test [1] is no less than 1.5. Moreover, in test [2], the fold induction is no less than 1.2.
`Cn1c(=O)cc(Nc2ccc(Br)cc2)c2c(=O)n(-c3ccccc3)c(=O)n(-c3ccccc3)c21` [Example 1-11]: in test [1], the fold induction at 0.1 µM is no less than 1.5. In test [2], the fold induction is no less than 1.2. In addition, the IC50 in test [4] fell in the range of 0.1 to 1 µM.
`Cn1c(=O)cc(Nc2ccc(Br)cc2)c2c(=O)n(CC(F)(F)F)c(=O)n(-c3ccccc3)c21` [Example 1-92] yielded a fold induction at 0.1 µM in test [1] of no less than 1.5. The fold induction in test [2] was no less than 1.2.
As to `CC(=O)Nc1cccc(-n2c(=O)n(C3CC3)c(=O)c3c(Nc4ccc(I)cc4F)n(C)c(=O)c(C)c32)c1` [Example 4-1, N-{3-[3-cyclopropyl-5-(2-fluoro-4-iodophenylamino)-6,8-dimethyl-2,4,7-trioxo-3,4,6,7-tetrahydro-2H-pyrido[4,3-d]pyrimidin-1-yl]-phenyl}-acetamide], in test [7], the “production of TNF-α or IL-6” value is listed as “suppressed”. Also, in test [6], the response vs control in vivo at 30 mg/kg stood at 3%. For the same compound, the IC50 in test [3] and in test [4] was less than 0.01 µM each time.
Regarding `CN(C)c1ccc(Nc2cc(=O)n(C)c3c2c(=O)n(-c2ccccc2)c(=O)n3-c2ccccc2)cc1` [Example 1-7], the fold induction at 0.1 µM in test [1] is no less than 1.5. Besides, the fold induction in test [2] was no less than 1.2. Also, the IC50 in test [4] lay in the range of 0.1 to 1 µM.
Compound `CN(C)c1ccc(Nc2cc(=O)n(C)c3c2c(=O)n(C2CC2)c(=O)n3-c2ccccc2)cc1` [Example 1-88] displayed a fold induction at 0.1 µM in test [1] of no less than 1.5. Further, the fold induction in test [2] was no less than 1.2. The IC50 in test [3] and in test [4] was 0.1 to 1 µM throughout.
As for `C#Cc1ccc(Nc2c3c(=O)n(C4CC4)c(=O)n(-c4cccc(NS(C)(=O)=O)c4)c3c(C)c(=O)n2C)c(F)c1` [Example 3-8], the fold induction at 0.1 µM in test [1] is no less than 1.5. Besides, the response vs control in vivo at 30 mg/kg in test [6] stood at 27%. In addition, the IC50 is 0.01 to 0.1 µM in test [3] and less than 0.01 µM in test [4].
`CN(C)c1ccc(Nc2cc(=O)n(C)c3c2c(=O)n(CC(F)(F)F)c(=O)n3-c2ccccc2)cc1` [Example 1-93] came in with a fold induction at 0.1 µM in test [1] of no less than 1.5. Besides, in test [2], the fold induction is no less than 1.2.
On to `Cc1c(=O)n(C)c(Nc2ccc(I)cc2F)c2c(=O)n(C3CC3)c(=O)n(-c3cccc(NC(=O)CO)c3)c12` [Example 4-82], for which the fold induction at 0.1 µM in test [1] and in test [5] was no less than 1.5 throughout. Besides, the fold induction at up to 10 µM in test [2] is no less than 1.2. Also, the IC50 in test [3] is 0.01 to 0.1 µM; in test [4], less than 0.01 µM.
On to `Cc1ccccc1-n1c(=O)n(C)c(=O)c2c(Nc3ccc(N(C)C)cc3)cc(=O)n(C)c21` [Example 1-99], for which, in test [1], the fold induction at 0.1 µM was no less than 1.5. In test [2], the fold induction was no less than 1.2. The compound also gave an IC50 in test [4] of 0.1 to 1 µM.
